Test results taken from patent US8552002B2 (Novartis AG, priority 2004, dated 2013).
pIC50: −log10 of the molar value.

Legend:
[1] = molecular target: T1, FGFR35 (Homo sapiens, UniProt P22607); experiment: FGFR35 (enzymatic assay), HTRF; type: biochemical; design: purchased Upstate; conditions: purified FGFR35, 3 μM ATP; read-out: IC50 for the FGFR35 enzyme assay
Description: Kinase activity assay with purified FGFR35 (Upstate) is carried out in a final volume of 10 μL containing 0.25 μg/mL of enzyme in kinase buffer (30 mM Tris-HCl pH7.5, 15 mM MgCl2, 4.5 mM MnCl2, 15 μM Na3VO4 and 50 μg/mL BSA), and substrates (5 μg/mL biotin-poly-EY(Glu, Tyr) (CIS-US, Inc.) and 3 μM ATP). Two solutions are made: the first solution of 5 μl contains the FGFR35 enzyme in kinase buffer was first dispensed into 384—format ProxiPlate® (Perkin-Elmer) followed by adding 50 nL of compounds dissolved in DMSO, then 5 μl of second solution contains the substrate (poly-EY) and ATP in kinase buffer was added to each wells. The reactions are incubated at room temperature for one hour, stopped by adding 10 μL of HTRF detection mixture, which contains 30 mM Tris-HCl pH7.5, 0.5 M KF, 50 mM ETDA, 0.2 mg/mL BSA, 15 μg/mL streptavidin-XL665 (CIS-US, Inc.) and 150 ng/mL cryptate conjugated anti-phosphotyrosine antibody (CIS-US, Inc.). After one hour of room temperature incubation to allow for streptavidin-biotin interaction, time resolved florescent signals are read on Analyst GT (Molecular Devices Corp.). IC50 values are calculated by linear regression analysis of the percentage inhibition of each compound at 12 concentrations (1:3 dilution from 50 μM to 0.28 nM).
Target sequence in this assay (P22607 23-806): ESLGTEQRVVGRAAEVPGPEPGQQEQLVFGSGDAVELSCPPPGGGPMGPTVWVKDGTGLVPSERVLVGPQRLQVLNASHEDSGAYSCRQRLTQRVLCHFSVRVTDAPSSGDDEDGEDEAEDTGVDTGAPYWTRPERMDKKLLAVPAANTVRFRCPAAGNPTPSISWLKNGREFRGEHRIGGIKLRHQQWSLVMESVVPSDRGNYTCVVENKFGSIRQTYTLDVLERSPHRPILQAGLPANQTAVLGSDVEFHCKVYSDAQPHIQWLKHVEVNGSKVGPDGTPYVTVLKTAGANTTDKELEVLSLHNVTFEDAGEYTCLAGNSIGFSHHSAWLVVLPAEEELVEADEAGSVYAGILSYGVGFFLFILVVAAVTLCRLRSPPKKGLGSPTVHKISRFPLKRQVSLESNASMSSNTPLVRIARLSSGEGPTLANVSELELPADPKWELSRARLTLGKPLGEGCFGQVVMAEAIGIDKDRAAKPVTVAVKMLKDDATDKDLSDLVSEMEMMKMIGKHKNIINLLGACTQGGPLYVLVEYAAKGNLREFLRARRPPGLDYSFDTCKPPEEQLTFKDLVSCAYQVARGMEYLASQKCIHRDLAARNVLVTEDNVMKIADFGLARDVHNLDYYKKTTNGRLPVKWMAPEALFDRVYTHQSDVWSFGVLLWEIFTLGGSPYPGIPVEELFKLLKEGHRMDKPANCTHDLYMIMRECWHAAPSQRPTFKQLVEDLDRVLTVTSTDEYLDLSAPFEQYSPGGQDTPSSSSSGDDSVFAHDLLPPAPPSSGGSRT

[2] = molecular target: T2, wild type Bcr-abl (Homo sapiens, UniProt P00519); experiment: Antiproliferative effect on cells expressing wild type Bcr-abl; type: cell-based; conditions: cell proliferation
T2 construct: the major C-terminal part (exons 2-11) of the c-abl gene; expressed in transfected cells; host or cells: murine 32D (32D-p210) or Ba/F3 cells; the other entry of the earlier key: BCR (P11274, Breakpoint cluster region protein)
T2 sequence (P00519 with tags, fused parts or gaps): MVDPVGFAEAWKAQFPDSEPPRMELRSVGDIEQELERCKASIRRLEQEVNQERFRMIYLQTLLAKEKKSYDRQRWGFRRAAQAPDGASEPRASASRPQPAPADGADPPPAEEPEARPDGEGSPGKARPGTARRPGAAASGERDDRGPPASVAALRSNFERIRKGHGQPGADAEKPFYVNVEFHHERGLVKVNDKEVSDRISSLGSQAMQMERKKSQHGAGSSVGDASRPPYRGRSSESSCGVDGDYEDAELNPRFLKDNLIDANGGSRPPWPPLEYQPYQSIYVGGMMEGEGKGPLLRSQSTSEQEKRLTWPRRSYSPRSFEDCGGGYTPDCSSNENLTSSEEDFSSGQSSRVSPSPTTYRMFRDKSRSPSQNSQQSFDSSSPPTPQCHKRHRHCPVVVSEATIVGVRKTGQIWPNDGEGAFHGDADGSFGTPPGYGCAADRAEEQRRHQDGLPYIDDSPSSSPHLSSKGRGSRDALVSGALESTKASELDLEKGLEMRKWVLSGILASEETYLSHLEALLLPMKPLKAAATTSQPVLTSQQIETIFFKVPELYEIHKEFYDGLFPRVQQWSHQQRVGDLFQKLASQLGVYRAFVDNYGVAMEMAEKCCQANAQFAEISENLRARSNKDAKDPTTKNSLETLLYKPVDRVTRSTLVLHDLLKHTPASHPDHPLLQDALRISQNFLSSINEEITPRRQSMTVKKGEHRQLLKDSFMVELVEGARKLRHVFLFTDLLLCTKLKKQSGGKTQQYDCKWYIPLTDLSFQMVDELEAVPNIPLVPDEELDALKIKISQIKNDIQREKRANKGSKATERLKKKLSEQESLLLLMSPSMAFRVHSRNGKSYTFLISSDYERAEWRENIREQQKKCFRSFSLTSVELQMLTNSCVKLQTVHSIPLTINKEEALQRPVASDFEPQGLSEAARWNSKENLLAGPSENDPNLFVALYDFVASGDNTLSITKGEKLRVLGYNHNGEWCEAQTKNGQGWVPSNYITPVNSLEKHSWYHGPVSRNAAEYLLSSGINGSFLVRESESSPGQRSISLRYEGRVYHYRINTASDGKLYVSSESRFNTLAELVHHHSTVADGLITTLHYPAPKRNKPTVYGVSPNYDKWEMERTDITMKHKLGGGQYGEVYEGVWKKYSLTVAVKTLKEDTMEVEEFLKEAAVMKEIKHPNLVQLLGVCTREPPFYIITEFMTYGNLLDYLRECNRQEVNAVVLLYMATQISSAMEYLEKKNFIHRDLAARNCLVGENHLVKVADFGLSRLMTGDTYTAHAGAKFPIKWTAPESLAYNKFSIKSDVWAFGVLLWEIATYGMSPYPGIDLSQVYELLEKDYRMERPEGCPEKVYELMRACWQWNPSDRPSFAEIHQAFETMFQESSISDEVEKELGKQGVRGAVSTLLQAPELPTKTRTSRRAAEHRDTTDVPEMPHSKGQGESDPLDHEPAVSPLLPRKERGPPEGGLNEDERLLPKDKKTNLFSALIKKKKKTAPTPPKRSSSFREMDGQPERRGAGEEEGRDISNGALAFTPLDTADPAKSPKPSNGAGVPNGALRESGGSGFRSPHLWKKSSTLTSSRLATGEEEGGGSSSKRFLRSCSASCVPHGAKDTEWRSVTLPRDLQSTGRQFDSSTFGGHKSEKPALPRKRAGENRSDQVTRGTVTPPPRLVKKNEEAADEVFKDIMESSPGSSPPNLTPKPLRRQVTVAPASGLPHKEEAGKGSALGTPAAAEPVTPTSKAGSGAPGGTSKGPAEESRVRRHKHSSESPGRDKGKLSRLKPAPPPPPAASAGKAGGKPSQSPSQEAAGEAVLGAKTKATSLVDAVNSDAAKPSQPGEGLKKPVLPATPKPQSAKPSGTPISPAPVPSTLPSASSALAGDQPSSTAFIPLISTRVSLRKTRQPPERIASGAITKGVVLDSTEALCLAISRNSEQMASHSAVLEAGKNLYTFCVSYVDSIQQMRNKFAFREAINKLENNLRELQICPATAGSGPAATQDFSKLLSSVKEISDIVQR
Description: 32D-p210 cells are plated into 96 well TC plates at a density of 15,000 cells per well. 50 μL of two fold serial dilutions of the test compound (Cmax is 40 μM) are added to each well (STI571 is included as a positive control). After incubating the cells for 48 hours at 37° C., 5% CO2, 15 μL of MTT (Promega) is added to each well and the cells are incubated for an additional 5 hours. The optical density at 570 nm is quantified spectrophotometrically and IC50 values, the concentration of compound required for 50% inhibition, determined from a dose response curve.
Compounds of the invention are tested for their antiproliferative effect on Ba/F3 cells expressing either wild type or the mutant forms of BCR-Abl (G250E, E255V, T315I, F317L, M351T) that confers resistance or diminished sensitivity to STI571. The antiproliferative effect of these compounds on the mutant-BCR-Abl expressing cells and on the non transformed cells were tested at 10, 3.3, 1.1 and 0.37 μM as described above (in media lacking IL3). The IC50 values of the compounds lacking toxicity on the untransformed cells were determined from the dose response curves obtained as describe above.

[3] = molecular target: PDGFRβ (Homo sapiens, UniProt P09619); experiment: Inhibition of PDGFRβ; type: biochemical
Sequence of PDGFRβ (P09619 33-1106, species assumed): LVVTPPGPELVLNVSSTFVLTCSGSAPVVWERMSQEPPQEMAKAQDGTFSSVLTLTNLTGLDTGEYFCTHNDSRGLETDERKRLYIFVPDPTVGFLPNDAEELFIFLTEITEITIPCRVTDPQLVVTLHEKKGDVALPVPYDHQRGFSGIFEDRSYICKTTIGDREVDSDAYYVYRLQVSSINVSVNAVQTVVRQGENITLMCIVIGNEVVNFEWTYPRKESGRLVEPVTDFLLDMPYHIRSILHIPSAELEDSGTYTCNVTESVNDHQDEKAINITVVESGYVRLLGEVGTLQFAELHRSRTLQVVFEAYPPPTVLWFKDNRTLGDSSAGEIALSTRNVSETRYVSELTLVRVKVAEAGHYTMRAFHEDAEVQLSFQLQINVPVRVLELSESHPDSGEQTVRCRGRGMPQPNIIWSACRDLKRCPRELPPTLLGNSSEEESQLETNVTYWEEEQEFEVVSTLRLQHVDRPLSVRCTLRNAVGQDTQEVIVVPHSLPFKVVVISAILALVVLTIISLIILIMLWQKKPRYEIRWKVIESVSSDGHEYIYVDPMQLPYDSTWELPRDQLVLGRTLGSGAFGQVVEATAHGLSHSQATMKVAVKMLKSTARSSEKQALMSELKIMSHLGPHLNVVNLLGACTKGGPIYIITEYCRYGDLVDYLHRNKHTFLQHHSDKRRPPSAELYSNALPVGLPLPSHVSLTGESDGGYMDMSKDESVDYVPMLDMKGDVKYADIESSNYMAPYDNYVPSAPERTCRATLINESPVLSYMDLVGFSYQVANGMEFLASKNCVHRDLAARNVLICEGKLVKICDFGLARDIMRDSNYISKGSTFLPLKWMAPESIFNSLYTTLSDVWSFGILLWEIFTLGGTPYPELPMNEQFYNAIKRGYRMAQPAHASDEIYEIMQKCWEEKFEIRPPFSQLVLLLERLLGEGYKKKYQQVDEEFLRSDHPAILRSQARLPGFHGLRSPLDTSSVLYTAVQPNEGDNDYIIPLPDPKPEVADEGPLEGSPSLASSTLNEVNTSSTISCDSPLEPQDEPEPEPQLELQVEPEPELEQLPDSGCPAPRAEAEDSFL
Description: Compounds selectively inhibiting the proliferation of these BCR-Abl transformed cells are tested for anti-proliferative activity on Ba/F3 cells expressing either wild type or the mutant forms of Bcr-abl. In addition, compounds are assayed to measure their capacity to inhibit FGFR35 (in an enzyme and cellular assay), FLT3, PDGFRβ, trkB, c-SRC, BMX, SGK, Tie2, Lck, JNK2α2, MKK4, c-RAF, MKK6, SAPK2α and SAPK2β kinases.

[4] = molecular target: T1, FGFR35; experiment: FGFR35 (cellular assay), proliferation of Ba/F3-TEL-FGFR35 cells; type: cell-based; design: fused on or other part: N-terminal part of TEL (ETV6), which acts as the oligomerising partner; it is fused to the part of FGFR3 that carries the kinase; P41212 (Transcription factor ETV6); conditions: 48 hours, read-out: IC50 for the FGFR35 cellular assay
Description: Compounds of the invention are tested for their ability to inhibit transformed Ba/F3-TEL-FGFR35 cells proliferation, which is depended on FGFR35 cellular kinase activity. Ba/F3-TEL-FGFR35 are cultured up to 800,000 cells/mL in suspension, with RPMI 1640 supplemented with 10% fetal bovine serum as the culture medium. Cells are dispensed into 384-well format plate at 5000 cell/well in 50 μL culture medium. Compounds of the invention are dissolved and diluted in dimethylsulfoxide (DMSO). Twelve points 1:3 serial dilutions are made into DMSO to create concentrations gradient ranging typically from 10 mM to 0.05 μM. Cells are added with 50 nL of diluted compounds and incubated for 48 hours in cell culture incubator. AlamarBlue® (TREK Diagnostic Systems), which can be used to monitor the reducing environment created by proliferating cells, are added to cells at final concentration of 10%. After additional four hours of incubation in a 37° C. cell culture incubator, fluorescence signals from reduced AlamarBlue® (Excitation at 530 nm, Emission at 580 nm) are quantified on Analyst GT (Molecular Devices Corp.). IC50 values are calculated by linear regression analysis of the percentage inhibition of each compound at 12 concentrations.
Target sequence in this assay (P22607 472-761 limits assumed, stated change not applied): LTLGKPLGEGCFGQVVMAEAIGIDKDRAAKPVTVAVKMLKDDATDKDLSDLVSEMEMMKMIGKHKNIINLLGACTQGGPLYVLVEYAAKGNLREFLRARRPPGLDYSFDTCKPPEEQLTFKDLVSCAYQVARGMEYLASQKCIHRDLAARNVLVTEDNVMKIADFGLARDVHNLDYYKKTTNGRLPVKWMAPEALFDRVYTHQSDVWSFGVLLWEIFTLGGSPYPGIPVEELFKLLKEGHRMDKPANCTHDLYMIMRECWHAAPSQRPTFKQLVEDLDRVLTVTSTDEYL

pIC50 [1]: 7.19
pIC50 [2]: 7.83
pIC50 [3]: 9.40
GI50 [4]: 49 nM
SMILES: Cc1ccc(NC(=O)c2cccc(C(F)(F)F)c2)cc1NC(=O)N(CCN1CCOCC1)c1cc(N)ncn1 [Example 214, N-{3-[3-(6-Amino-pyrimidin-4-yl)-3-(2-morpholin-4-yl-ethyl)-ureido]-4-methyl-phenyl}-3-trifluoromethyl-benzamide]
